Test results: article PMC11915835, “Enhancing the solubility of SARS-CoV-2 inhibitors to increase future prospects for clinical development” (Journal of Virology, 2025)
Where two headings read alike, the source gives them in different places.

Experiments:
[1] = pH 7.4
[2] = Chemical stability in PBS by UPLC; assay type: physicochemical; conditions: room temperature; for Integrity during the solubility study: up to 168 h, UPLC, 220 nm; for Peptide degradation after incubation in PBS: 2 weeks, UPLC 220 nm, disulfide peak after 1 day removed by TCEP
[3] = molecular target: SARS-CoV-2 tHRN peptide (44 residues) (Severe acute respiratory syndrome coronavirus 2, UniProt P0DTC2); assay type: binding
SARS-CoV-2 S BA.5 = assay type: cell-based; conditions: for IC50: read-out: IC50, inhibition of S-mediated cell–cell fusion, SARS-CoV-2 BA.5; for IC90: read-out: IC90, inhibition of S-mediated cell–cell fusion, SARS-CoV-2 BA.5
[4] = molecular target: SARS-CoV-2 HRN peptide (55 residues) (Severe acute respiratory syndrome coronavirus 2, UniProt P0DTC2); assay type: binding; conditions: pH 7.4

Row | Compound | Solubility relative to HRC-L [1] | Integrity during the solubility study [2] | IC50 (SARS-CoV-2 S BA.5) | IC90 (SARS-CoV-2 S BA.5) | Peptide degradation after incubation in PBS [2] | Tm of 1:1 mixture with tHRN ([3]; 5-95 °C) | Temperature above which disruption of the helical assembly with HRN is detectable [4] | further results
1 | Ac-DISQINASVVNIEYEIKKLEEVAKKLEESLIDLQELGSGSGC-NH2 [QE-L] | ~ two-fold | remained intact | – | – | – | – | – | –
2 | CC[C@H](C)[C@H](NC(=O)[C@H](C)NC(=O)[C@H](CCC(=O)O)NC(=O)[C@H](CCC(=O)O)NC(=O)[C@H](CC(C)C)NC(=O)[C@H](CCCCN)NC(=O)[C@H](CCCCN)NC(=O)[C@H](CCSC)NC(=O)[C@H](CCC(=O)O)NC(=O)[C@H](Cc1ccc(O)cc1)NC(=O)[C@H](CCC(=O)O)NC(=O)[C@H](CC(C)C)NC(=O)[C@H](CC(=O)O)NC(=O)[C@H](CC(C)C)NC(=O)[C@H](Cc1ccccc1)NC(=O)[C@@H](NC(=O)[C@@H](NC(=O)[C@H](CC(N)=O)NC(=O)[C@@H](NC(=O)[C@H](CCC(N)=O)NC(=O)[C@H](CC(=O)O)NC(=O)[C@H](CC(C)C)NC(=O)[C@H](CO)NC(C)=O)[C@@H](C)CC)C(C)C)[C@@H](C)O)C(=O)N[C@@H](CCCCN)C(=O)N[C@@H](CCCCN)C(=O)N[C@@H](CC(C)C)C(=O)N[C@@H](CCC(=O)O)C(=O)N[C@@H](CCC(=O)O)C(=O)N[C@@H](CO)C(=O)N[C@@H](Cc1ccc(O)cc1)C(=O)N[C@H](C(=O)N[C@@H](CC(=O)O)C(=O)N[C@@H](CC(C)C)C(=O)N[C@@H](CCCCN)C(=O)N[C@@H](CCC(=O)O)C(=O)N[C@@H](CC(C)C)C(N)=O)[C@@H](C)CC [EK1, reference compound] | – | – | – | – | – | – | – | Tm of 1:1 mixture with tHRN ([3]; pH 7.4): 38 ± 0.3 °C
3 | Ac-SIDQINATFVDIEYEIKKLEEVAKKLEESYIDLKELGSGSGC-NH2 [SK-L] | ~ two-fold | remained intact | – | – | – | – | – | –
4 | Ac-DISQINASVVNIEYEIKKLEEVAKKLEESLIDLQEL-NH2 [QE] | – | – | 7 ± 2.1 nM | 14 ± 4 nM | No peptide degradation was observed | 65 +/- 0.5 °C | > 70 °C | –
5 | Ac-SIDQINATFVDIEYEIKKLEEVAKKLEESYIDLKEL-NH2 [SK] | – | – | 6.2 ± 1.1 nM | 14 ± 2 nM | No peptide degradation was observed | 72 +/- 0.3 °C | > 70 °C | –
6 | Ac-PDVDLGDISQINASVVNIEYEIKKLEEVAKKLEESLIDLQEL-NH2 [QE-EXT] | – | – | 5.6 ± 0.72 nM | – | – | – | – | –
